Legend:
Na+/H+ exchanger (NHE) = assay: NHE activity: Na+-dependent pHi recovery after NH4Cl acid pulse in BCECF-loaded SKNMC-H3 cells; assay type: cell-based, human
SH-SY5Y cells [1] = assay type: cell-based, human
SH-SY5Y-H3 cells [2] = assay: Cai measurements (Fura-2) in K+-depolarized H3R-transfected SH-SY5Y-H3 cells; assay type: cell-based, human
H3R = H3R (Homo sapiens, UniProt Q9Y5N1); settings: read-out: EC50 to activate the H3R; cited from earlier work
[3] = test system: guinea-pig heart synaptosomes; assay type: cell-based
SH-SY5Y-H3 cells [4] = assay type: cell-based, human
SH-SY5Y cells [5] = assay type: cell-based, human; remark: listed apart in the source
[6] = thioperamide 300 nM plus imetit 100 nM

Chain of H3R (Q9Y5N1 whole entry, species assumed): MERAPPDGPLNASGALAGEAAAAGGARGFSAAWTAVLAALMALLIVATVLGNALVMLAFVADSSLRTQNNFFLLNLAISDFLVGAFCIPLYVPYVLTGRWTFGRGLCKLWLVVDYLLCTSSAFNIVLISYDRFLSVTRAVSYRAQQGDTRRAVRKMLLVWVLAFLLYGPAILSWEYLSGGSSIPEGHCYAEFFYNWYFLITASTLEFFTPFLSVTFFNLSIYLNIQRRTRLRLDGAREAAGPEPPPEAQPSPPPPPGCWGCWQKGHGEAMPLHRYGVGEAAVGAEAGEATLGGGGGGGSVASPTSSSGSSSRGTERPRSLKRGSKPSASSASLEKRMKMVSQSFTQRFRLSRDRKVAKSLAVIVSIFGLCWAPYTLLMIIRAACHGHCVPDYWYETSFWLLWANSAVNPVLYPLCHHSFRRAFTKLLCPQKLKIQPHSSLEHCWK

Compound: CCN(c1nc(N)c(C(=O)N=C(N)N)nc1Cl)C(C)C [EIPA, 5-(N-ethyl-N-isopropyl)amiloride]
- inhibition of NHE activity (Na+/H+ exchanger (NHE); EIPA 10 uM): 50%
- mean rate of Na+-dependent intracellular alkalinization (NHE activity) (Na+/H+ exchanger (NHE); EIPA 10 uM, control 0.074): 0.031 pHi units/min

Compound: N=C(N)SCCc1cnc[nH]1 [imetit, Imetit]
- K+-elicited Cai transients (SH-SY5Y cells [1]): fails to affect Cai transients
- effect on peak Cai concentration elicited by 100 mM K+ (SH-SY5Y cells [1]): failed to affect peak Cai concentration
- inhibition of NHE activity (Na+/H+ exchanger (NHE); imetit 100 nM): 35%
- rate of intracellular alkalinization, representative single cell (Na+/H+ exchanger (NHE); imetit 100 nM, cell of FIG. 1B, control cell 0.094): 0.050 pHi units/min
- final pHi after re-introduction of Na+ (Na+/H+ exchanger (NHE); imetit 100 nM, n=277 cells): 6.61±0.01
- initial pHi (Na+/H+ exchanger (NHE); imetit-treated cells, n=277): 6.74±0.01
- pHi right before Na+ was reintroduced (0 Na pHi) (Na+/H+ exchanger (NHE); imetit-treated cells, n=277): 6.26±0.01
- cells with rates lower than the mean control rate of 0.074 pHi units/min (Na+/H+ exchanger (NHE); imetit-treated, 277 cells): 77%
- K+-elicited Ca2+ transients (SH-SY5Y-H3 cells [2]): markedly depressed
- decrease in peak Cai concentration elicited by 100 mM K+ (SH-SY5Y-H3 cells [2]): 55%
- EC50 (H3R): 2 nM
- concentration-response curve for K+-induced exocytosis of endogenous NE [3]: significantly shifted downwards
- concentration-response curve for K+-induced exocytosis of [3H]NE (SH-SY5Y-H3 cells [4]): significantly shifted downwards

Compound: S=C(NC1CCCCC1)N1CCC(c2c[nH]cn2)CC1 [thioperamide, Thioperamide]
- effect on NHE activity (Na+/H+ exchanger (NHE); thioperamide 300 nM alone): did not significantly modify NHE activity
- effect on imetit-induced NHE attenuation (Na+/H+ exchanger (NHE); [6]): abolished the imetit-induced NHE attenuation
- effect on imetit-induced depression of the rise in Cai concentration (SH-SY5Y-H3 cells [2]; [6]): completely prevented
- effect on the imetit response of Ca2+ transients (SH-SY5Y-H3 cells [2]; [6]): prevented
- effect on imetit-induced attenuation of endogenous NE exocytosis [3]: prevented
- effect on imetit-induced attenuation of [3H]NE exocytosis (SH-SY5Y-H3 cells [4]): prevented

Compound: ω-conotoxin GVIA [ω-CTX]
- concentration-response curve for K+-induced exocytosis of [3H]NE (SH-SY5Y cells [5]): shifted markedly downwards
- increase in peak Cai concentration on K+ depolarization (SH-SY5Y cells [1]): markedly attenuated
- increase in peak Cai concentration on K+ depolarization (SH-SY5Y-H3 cells [2]): markedly attenuated
- concentration-response curve for K+-induced exocytosis of endogenous NE [3]: shifted markedly downwards
- concentration-response curve for K+-induced exocytosis of [3H]NE (SH-SY5Y-H3 cells [4]): shifted markedly downwards

From patent US6884809B2 (Cornell Research Foundation, Inc., priority 2001, dated 2005)
